Read-outs that look alike come from different tables or passages of the source. Blank lines part the entries; values can stand above or below the compound they belong to. Square brackets hold non-standard residues; d marks the D form. Peptide text beside a SMILES is read from it. * marks the point of attachment. DOTA = O=C(O)CN1CCN(CC(=O)O)CCN(CC(=O)*)CCN(CC(=O)O)CC1; Phe(3,4,5-F3) = N[C@@H](Cc1cc(F)c(F)c(F)c1)C(=O)O; Phe(3,4-F2) = N[C@@H](Cc1ccc(F)c(F)c1)C(=O)O; NMe1Nal = CN[C@@H](Cc1cccc2ccccc12)C(=O)O; Phe(4-CN) = N#Cc1ccc(C[C@H](N)C(=O)O)cc1; Phe(4-NH2) = Nc1ccc(C[C@H](N)C(=O)O)cc1; Phe(4-F) = N[C@@H](Cc1ccc(F)cc1)C(=O)O; 1Nal = N[C@@H](Cc1cccc2ccccc12)C(=O)O; NMeNle = CCCC[C@H](NC)C(=O)O; Sar = CNCC(=O)O
Biological target: T1, human full-length CCK-2 receptor (Homo sapiens, UniProt P32239)
T1 construct: stably transfected to over-express the human full-length CCK-2 receptor (A431-CCK-2R); expressed in transfected cells
T1 sequence (P32239 1-447): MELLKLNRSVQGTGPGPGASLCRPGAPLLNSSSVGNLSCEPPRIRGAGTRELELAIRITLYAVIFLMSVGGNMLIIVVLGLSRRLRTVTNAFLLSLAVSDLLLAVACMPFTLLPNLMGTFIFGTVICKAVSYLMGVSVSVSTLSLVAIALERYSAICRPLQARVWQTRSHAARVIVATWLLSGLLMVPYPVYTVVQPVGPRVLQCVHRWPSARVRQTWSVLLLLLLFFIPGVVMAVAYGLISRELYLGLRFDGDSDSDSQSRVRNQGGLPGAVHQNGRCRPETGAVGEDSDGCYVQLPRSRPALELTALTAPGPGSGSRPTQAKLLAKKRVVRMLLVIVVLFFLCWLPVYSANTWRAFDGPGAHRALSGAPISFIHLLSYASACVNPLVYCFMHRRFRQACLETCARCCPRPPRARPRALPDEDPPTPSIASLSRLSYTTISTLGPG
Test: Competitive ligand binding against [^177Lu]Lu-DOTA-CP04 in A431-CCK-2R cells
Description: CCK-2 receptor binding experiments were conducted using A431 (human epidermoid carcinoma) cells stably transfected to over-express the human full-length CCK-2 receptor (A431-CCK-2R). As a negative control, A431 cells stably transfected with an empty vector were analysed simultaneously (A431-EV). A431 cells were maintained in DMEM (Gibco, Australia) media supplemented with 10% foetal calf serum and 250 μg/mL G418 as described previously (Aloj L, et al., J Nucl Med., 2004, Mar; 45(3), 485-94). The affinity of peptides for the CCK-2R was evaluated using competitive binding assays against [^177Lu]Lu-DOTA-CP04 in A431-CCK-2R cells. Briefly, 48 h before the experiment cells were plated at a density of 650,000 cells per well in 6 well plates. On the day of the experiment the peptides were diluted in DMEM supplemented with 1% foetal calf serum to at least 7 different concentrations (0-400 nM) and approximately 50,000 cpm of [^177Lu]Lu-DOTA-CP04 was added to each dilution. Cells were washed twice in ice-cold binding buffer (DMEM supplemented with 1% foetal calf serum) and resuspended in 1.5 mL of the pre-prepared compound mix before being incubated at 37° C. for 1 h. Post-incubation the media was removed and kept for analysis (unbound fraction) and the cells were washed twice in ice-cold binding buffer, which was pooled with the unbound fraction. Finally, 1 M NaOH was added to the cells and allowed to incubate for 5 min before lysates were collected (bound fraction). A small volume of lysate was kept aside to determine protein concentration using the Pierce® BCA protein assay kit (Thermo Fisher, Australia). All samples were analysed using the Perkin Elmer 2480 Wizard2™ gamma counter (PerkinElmer, Massachusetts, USA) and were normalised according to protein concentration. Half-maximal inhibitory concentrations (IC50) were determined using nonlinear regression calculated using GraphPad Prism Software (GraphPad Software, California, USA).
The compounds were evaluated for their ability to disrupt the binding between CCK-2 receptor (CCK-2R) and [^177Lu]Lu-DOTA-CP04 using the methodology described above and compared to comparative example-2 (FIG. 2; Table 5).

[1] = ^natGa chelated DOTA-compounds based on Peptide C (Table 5), read-out: IC50
[2] = modified peptides based on Peptide C (Table 4), read-out: IC50
[3] = substituted-phenylalanine peptides based on Cmp ex-1 (Table 3), read-out: IC50

- IC50 [1]: 0.08 nM
Structure (SMILES): CCCC[C@@H](C(=O)N[C@@H](CC(=O)O)C(=O)N[C@@H](Cc1cccc2ccccc12)C(N)=O)N(C)C(=O)[C@H](Cc1c[nH]c2ccccc12)NC(=O)CN(C)C(=O)[C@H](Cc1ccc(O)cc1)NC(=O)[C@H](C)NC(=O)[C@@H](CCC(=O)O)NC(=O)[C@@H](CCC(=O)O)NC(=O)[C@@H](CCC(=O)O)NC(=O)[C@@H](C)NC(=O)[C@@H](CCC(=O)O)NC(=O)[C@@H](CCC(=O)O)NC(=O)CN1CCN(CC(=O)O)CCN(CC(=O)O)CCN(CC(=O)O)CC1 [^natGa-1, metal not drawn] ({DOTA}-[dE][dE][dA][dE][dE][dE]AY[Sar]W[NMeNle]D[1Nal]-NH2)

- IC50 [2]: 1.15 ± 0.096 nM
Structure (SMILES): CCCC[C@@H](C(=O)N[C@@H](CC(=O)O)C(=O)N[C@@H](Cc1ccc(O)cc1)C(N)=O)N(C)C(=O)[C@H](Cc1c[nH]c2ccccc12)NC(=O)CN(C)C(=O)[C@H](Cc1ccc(O)cc1)NC(=O)[C@H](C)NC(=O)[C@@H](CCC(=O)O)NC(=O)[C@@H](CCC(=O)O)NC(=O)[C@@H](CCC(=O)O)NC(=O)[C@@H](C)NC(=O)[C@@H](CCC(=O)O)NC(=O)[C@H](N)CCC(=O)O [Peptide R] (H-[dE][dE][dA][dE][dE][dE]AY[Sar]W[NMeNle]DY-NH2; N-terminus assumed)

- IC50 [3]: 0.52 nM
Structure (SMILES): CCCC[C@@H](C(=O)N[C@@H](CC(=O)O)C(=O)N[C@@H](Cc1ccc(N)cc1)C(N)=O)N(C)C(=O)[C@H](Cc1c[nH]c2ccccc12)NC(=O)CN(C)C(=O)[C@H](Cc1ccc(O)cc1)NC(=O)[C@H](C)NC(=O)[C@@H](CCC(=O)O)NC(=O)[C@@H](CCC(=O)O)NC(=O)[C@@H](CCC(=O)O)NC(=O)[C@@H](CCC(=O)O)NC(=O)[C@@H](CCC(=O)O)NC(=O)[C@H](N)CCC(=O)O [K] (H-[dE][dE][dE][dE][dE][dE]AY[Sar]W[NMeNle]D[Phe(4-NH2)]-NH2; N-terminus assumed)

- IC50 [2]: 0.368 ± 0.04 nM
Structure (SMILES): CCCC[C@@H](C(=O)N[C@@H](CC(=O)O)C(=O)N[C@@H](Cc1ccc(F)cc1)C(N)=O)N(C)C(=O)[C@H](Cc1c[nH]c2ccccc12)NC(=O)CN(C)C(=O)[C@H](Cc1ccc(O)cc1)NC(=O)[C@H](C)NC(=O)[C@@H](CCC(=O)O)NC(=O)[C@@H](CCC(=O)O)NC(=O)[C@@H](CCC(=O)O)NC(=O)[C@@H](C)NC(=O)[C@@H](CCC(=O)O)NC(=O)[C@H](N)CCC(=O)O [O] (H-[dE][dE][dA][dE][dE][dE]AY[Sar]W[NMeNle]D[Phe(4-F)]-NH2; N-terminus assumed)

- IC50 (D-Ala substituted peptides (Table 2), against [^177Lu]Lu-DOTA-CP04 in A431-CCK-2R cells, read-out: IC50): 0.319 nM
- decrease in affinity for the CCK-2 receptor (free peptide versus its linker/metal-complex (DOTA) form): 5 fold
Structure (SMILES): CCCC[C@@H](C(=O)N[C@@H](CC(=O)O)C(=O)N[C@@H](Cc1cccc2ccccc12)C(N)=O)N(C)C(=O)[C@H](Cc1c[nH]c2ccccc12)NC(=O)CN(C)C(=O)[C@H](Cc1ccc(O)cc1)NC(=O)[C@H](C)NC(=O)[C@@H](CCC(=O)O)NC(=O)[C@@H](CCC(=O)O)NC(=O)[C@@H](CCC(=O)O)NC(=O)[C@@H](CCC(=O)O)NC(=O)[C@@H](CCC(=O)O)NC(=O)[C@H](N)CCC(=O)O [Cmp ex-1, reference compound] (H-[dE][dE][dE][dE][dE][dE]AY[Sar]W[NMeNle]D[1Nal]-NH2; N-terminus assumed)

- loss of binding affinity / activity (D-Ala analogue versus baseline comparative example-1): greater than 10 fold
Structure (SMILES): CCCC[C@@H](C(=O)N[C@@H](CC(=O)O)C(=O)N[C@@H](Cc1cccc2ccccc12)C(N)=O)N(C)C(=O)[C@H](Cc1c[nH]c2ccccc12)NC(=O)CN(C)C(=O)[C@H](Cc1ccc(O)cc1)NC(=O)[C@H](C)NC(=O)[C@@H](CCC(=O)O)NC(=O)[C@@H](CCC(=O)O)NC(=O)[C@@H](CCC(=O)O)NC(=O)[C@@H](CCC(=O)O)NC(=O)[C@@H](CCC(=O)O)NC(=O)[C@@H](C)N [Peptide A] (H-[dA][dE][dE][dE][dE][dE]AY[Sar]W[NMeNle]D[1Nal]-NH2)

Structure (SMILES): CCCC[C@@H](C(=O)N[C@@H](CC(=O)O)C(=O)N[C@@H](Cc1ccc(F)c(F)c1)C(N)=O)N(C)C(=O)[C@H](Cc1c[nH]c2ccccc12)NC(=O)CN(C)C(=O)[C@H](Cc1ccc(O)cc1)NC(=O)[C@H](C)NC(=O)[C@@H](CCC(=O)O)NC(=O)[C@@H](CCC(=O)O)NC(=O)[C@@H](CCC(=O)O)NC(=O)[C@@H](C)NC(=O)[C@@H](CCC(=O)O)NC(=O)[C@H](N)CCC(=O)O [Peptide S] (H-[dE][dE][dA][dE][dE][dE]AY[Sar]W[NMeNle]D[Phe(3,4-F2)]-NH2; N-terminus assumed)
- IC50: 2.66 ± 0.226 nM

- IC50 [3]: 0.26 nM
Structure (SMILES): CCCC[C@@H](C(=O)N[C@@H](CC(=O)O)C(=O)N[C@@H](Cc1cc(F)c(F)c(F)c1)C(N)=O)N(C)C(=O)[C@H](Cc1c[nH]c2ccccc12)NC(=O)CN(C)C(=O)[C@H](Cc1ccc(O)cc1)NC(=O)[C@H](C)NC(=O)[C@@H](CCC(=O)O)NC(=O)[C@@H](CCC(=O)O)NC(=O)[C@@H](CCC(=O)O)NC(=O)[C@@H](CCC(=O)O)NC(=O)[C@@H](CCC(=O)O)NC(=O)[C@H](N)CCC(=O)O [I] (H-[dE][dE][dE][dE][dE][dE]AY[Sar]W[NMeNle]D[Phe(3,4,5-F3)]-NH2)

- IC50 [3]: 0.92 nM
Structure (SMILES): CCCC[C@@H](C(=O)N[C@@H](CC(=O)O)C(=O)N[C@@H](Cc1ccc(F)cc1)C(N)=O)N(C)C(=O)[C@H](Cc1c[nH]c2ccccc12)NC(=O)CN(C)C(=O)[C@H](Cc1ccc(O)cc1)NC(=O)[C@H](C)NC(=O)[C@@H](CCC(=O)O)NC(=O)[C@@H](CCC(=O)O)NC(=O)[C@@H](CCC(=O)O)NC(=O)[C@@H](CCC(=O)O)NC(=O)[C@@H](CCC(=O)O)NC(=O)[C@H](N)CCC(=O)O [G] (H-[dE][dE][dE][dE][dE][dE]AY[Sar]W[NMeNle]D[Phe(4-F)]-NH2)

- IC50 [3]: 0.64 nM
Structure (SMILES): CCCC[C@@H](C(=O)N[C@@H](CC(=O)O)C(=O)N[C@@H](Cc1ccc(F)c(F)c1)C(N)=O)N(C)C(=O)[C@H](Cc1c[nH]c2ccccc12)NC(=O)CN(C)C(=O)[C@H](Cc1ccc(O)cc1)NC(=O)[C@H](C)NC(=O)[C@@H](CCC(=O)O)NC(=O)[C@@H](CCC(=O)O)NC(=O)[C@@H](CCC(=O)O)NC(=O)[C@@H](CCC(=O)O)NC(=O)[C@@H](CCC(=O)O)NC(=O)[C@H](N)CCC(=O)O [H] (H-[dE][dE][dE][dE][dE][dE]AY[Sar]W[NMeNle]D[Phe(3,4-F2)]-NH2)

- IC50 [1]: 0.158 nM
Structure (SMILES): CCCC[C@@H](C(=O)N[C@@H](CC(=O)O)C(=O)N(C)[C@@H](Cc1cccc2ccccc12)C(N)=O)N(C)C(=O)[C@H](Cc1c[nH]c2ccccc12)NC(=O)CN(C)C(=O)[C@H](Cc1ccc(O)cc1)NC(=O)[C@H](C)NC(=O)[C@@H](CCC(=O)O)NC(=O)[C@@H](CCC(=O)O)NC(=O)[C@@H](CCC(=O)O)NC(=O)[C@@H](CCC(=O)O)NC(=O)[C@@H](CCC(=O)O)NC(=O)[C@@H](CCC(=O)O)NC(=O)CN1CCN(CC(=O)O)CCN(CC(=O)O)CCN(CC(=O)O)CC1 [^natGa-Cmp ex-2, metal not drawn, reference compound] ({DOTA}-[dE][dE][dE][dE][dE][dE]AY[Sar]W[NMeNle]D[NMe1Nal]-NH2)

- IC50 [1]: 0.042 nM
Structure (SMILES): CCCC[C@@H](C(=O)N[C@@H](CC(=O)O)C(=O)N[C@@H](Cc1ccccc1)C(N)=O)N(C)C(=O)[C@H](Cc1c[nH]c2ccccc12)NC(=O)CN(C)C(=O)[C@H](Cc1ccc(O)cc1)NC(=O)[C@H](C)NC(=O)[C@@H](CCC(=O)O)NC(=O)[C@@H](CCC(=O)O)NC(=O)[C@@H](CCC(=O)O)NC(=O)[C@@H](C)NC(=O)[C@@H](CCC(=O)O)NC(=O)[C@@H](CCC(=O)O)NC(=O)CN1CCN(CC(=O)O)CCN(CC(=O)O)CCN(CC(=O)O)CC1 [^natGa-3, metal not drawn] ({DOTA}-[dE][dE][dA][dE][dE][dE]AY[Sar]W[NMeNle]DF-NH2)

- IC50 [2]: 1.57 ± 0.089 nM
Structure (SMILES): CCCC[C@@H](C(=O)N[C@@H](CC(=O)O)C(=O)N[C@@H](Cc1ccc(C#N)cc1)C(N)=O)N(C)C(=O)[C@H](Cc1c[nH]c2ccccc12)NC(=O)CN(C)C(=O)[C@H](Cc1ccc(O)cc1)NC(=O)[C@H](C)NC(=O)[C@@H](CCC(=O)O)NC(=O)[C@@H](CCC(=O)O)NC(=O)[C@@H](CCC(=O)O)NC(=O)[C@@H](C)NC(=O)[C@@H](CCC(=O)O)NC(=O)[C@H](N)CCC(=O)O [Q] (H-[dE][dE][dA][dE][dE][dE]AY[Sar]W[NMeNle]D[Phe(4-CN)]-NH2; N-terminus assumed)

Source: US20260077071A1, “Targeted Delivery of Theranostic Agents” (Peter MacCallum Cancer Institute, priority 2022, published 2026)
